For 13 molecules, EC50 results are on record in patent US20230089073A1 (Carmot Therapeutics, Inc., priority 2021, published 2023).

The target in the assay is T1, human GLP-1 receptor (Homo sapiens, UniProt P43220).
T1 construct: expressed in transfected cells
Kind of assay: GLP-1R cAMP Assay. The class given is cell-based. The conditions noted are these: cAMP accumulation in CHO cells stably overexpressing the human GLP-1 receptor; 30 min treatment; HitHunter cAMP kit; read-out: EC50. As to the method:
cAMP accumulation was measured in Chinese hamster ovary (CHO) cells stably overexpressing the human GLP-1 receptor using the HitHunter cAMP Assay for Small Molecules Kit (Eurofins). Briefly, cells were grown in Ham's F12 Nutrient Mix with 10% FBS, and lifted with Cell Dissociation Buffer, Enzyme free, PBS based (ThermoFisher). […] The anti-cAMP antibody reagent was then added to cells at a 1:2 ratio and 5 μL of mixture was seeded in 384-well small volume white assay plates, at 10,000 cells/well. Cells were then treated with 50 nL compound using an ECHO 550 acoustic dispenser (Labcyte) in a 20-point dose response format in triplicate for 30 min. Cells were then lysed, and detection reagents added according to the manufacturer's protocol. After overnight incubation, luminescence was measured using a Perkin Elmer Envision plate reader. Dose response curves were analyzed using GraphPad Prism 9.0.
In general terms: Cyclic AMP is a second messenger, typically raised through Gs and lowered through Gi signalling.

pEC50: −log10 of the molar value. A value given as a limit tells only on which side of the number the result lay.

T1 sequence (P43220 24-463): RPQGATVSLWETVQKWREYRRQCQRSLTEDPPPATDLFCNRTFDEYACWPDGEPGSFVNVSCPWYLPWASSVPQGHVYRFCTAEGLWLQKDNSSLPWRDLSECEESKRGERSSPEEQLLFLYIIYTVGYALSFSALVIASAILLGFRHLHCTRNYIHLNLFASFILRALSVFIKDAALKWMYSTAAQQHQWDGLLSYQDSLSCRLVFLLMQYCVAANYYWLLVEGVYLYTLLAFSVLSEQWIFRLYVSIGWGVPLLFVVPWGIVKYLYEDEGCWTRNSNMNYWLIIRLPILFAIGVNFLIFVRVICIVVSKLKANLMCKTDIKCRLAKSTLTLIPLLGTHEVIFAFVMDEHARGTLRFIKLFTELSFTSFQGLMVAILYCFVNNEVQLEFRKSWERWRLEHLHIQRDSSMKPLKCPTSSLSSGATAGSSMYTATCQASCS

The term pEC50 denotes the negative decadic logarithm of the EC50, by convention in mol/L. Take `CN(c1ccccc1)c1cc(C(=O)N2CCN(Cc3nc4ccc(C(=O)O)cc4n3C[C@@H]3CCO3)CC2)ncn1` [Example 62, (S)-2-((4-(6-(Methyl(phenyl)amino)pyrimidine-4-carbonyl)piperazin-1-yl)methyl)-1-(oxetan-2-ylmethyl)-1H-benzo[d]imidazole-6-carboxylic acid]: the pEC50 is less than 6.30.

Turning to `CCn1cncc1Cn1c(CN2CCC(Oc3cccc(COc4ccc(Cl)cc4C#N)c3)CC2)nc2ccc(C(=O)O)cc21` [Compound 215, 2-[(4-{3-[(4-chloro-2-cyanophenoxy)methyl]phenoxy}piperidin-1-yl)methyl]-1-[(1-ethyl-1H-imidazol-5-yl)methyl]-1H-1,3-benzodiazole-6-carboxylic acid], the pEC50 is more than 7.30.

For the molecule `CCn1cncc1Cn1c(CN2CCc3[nH]c4ccc(OCc5ccc(Cl)cc5Cl)cc4c3C2)nc2ccc(C(=O)O)cc21` [Compound 143, 2-({8-[(2,4-dichlorophenyl)methoxy]-1H,2H,3H,4H,5H-pyrido[4,3-b]indol-2-yl}methyl)-1-[(1-ethyl-1H-imidazol-5-yl)methyl]-1H-1,3-benzodiazole-6-carboxylic acid], the pEC50 is 6.30 to 7.30.

For the molecule `O=C(O)c1ccc2nc(CN3CCC(Oc4ccnc(COc5ccc(F)cc5C(F)(F)F)n4)CC3)n(C[C@@H]3CCO3)c2c1` [Compound 342], the pEC50 is more than 7.30.

As for `C[C@H]1C[C@@H](Oc2ccnc(COc3ccc(C#N)cc3F)c2)CCN1Cc1nc2c(F)cc(C(=O)O)cc2n1C[C@@H]1CCO1` [Compound 501, 2-{[(2S,4S)-4-({2-[(4-cyano-2-fluorophenoxy)methyl]pyridin-4-yl}oxy)-2-methylpiperidin-1-yl]methyl}-4-fluoro-1-{[(2S)-oxetan-2-yl]methyl}-1H-1,3-benzodiazole-6-carboxylic acid], the pEC50 was more than 7.30.

Regarding `N#Cc1ccc(OCc2nccc(O[C@@H]3C[C@H]4CC[C@@H](C3)N4Cc3nc4ccc(C(=O)O)cc4n3C[C@@H]3CCO3)n2)c(F)c1` [Compound 487, 2-{[(1R,3S,5S)-3-({2-[(4-cyano-2-fluorophenoxy)methyl]pyrimidin-4-yl}oxy)-8-azabicyclo[3.2.1]octan-8-yl]methyl}-1-{[(2S)-oxetan-2-yl]methyl}-1H-1,3-benzodiazole-6-carboxylic acid], the pEC50 was 6.30 to 7.30.

As to `N#Cc1ccc(OCc2cccc(OC3CCN(Cc4nc5ccc(C(=O)O)cc5n4C[C@@H]4CCO4)CC3)n2)c(F)c1` [Example 285, (S)-2-((4-((6-((4-Cyano-2-fluorophenoxy)methyl)pyridin-2-yl)oxy)piperidin-1-yl)methyl)-1-(oxetan-2-ylmethyl)-1H-benzo[d]imidazole-6-carboxylic acid], the pEC50 is more than 7.30.

For `O=C(O)c1ccc2nc(CN3CCN(C(=O)c4ccc(COc5ccc(Cl)cc5Cl)o4)CC3)n(C[C@@H]3CCO3)c2c1` [Compound 26, 2-[(4-{5-[(2,4-dichlorophenoxy)methyl]furan-2-carbonyl}piperazin-1-yl)methyl]-1-{[(2S)-oxetan-2-yl]methyl}-1H-1,3-benzodiazole-6-carboxylic acid], the pEC50 was 6.30 to 7.30.

For `N#Cc1ccc(OCc2cc(OC3CCN(Cc4nc5c(F)cc(C(=O)O)cc5n4C[C@@H]4CCO4)CC3)ccn2)c(F)c1` [Compound 365], the pEC50 was more than 7.30.

As to `N#CCC1(Cn2c(CN3CCC(Oc4ccnc(COc5ccc(C#N)cc5F)n4)CC3)nc3ccc(C(=O)O)cc32)CC1` [Compound 331], the pEC50 is more than 7.30.

On to `O=C(O)c1cc(F)c2nc(CN3CCC(Oc4cccc(COc5ccc(C(F)F)cc5F)c4)CC3)n(C[C@@H]3CCO3)c2c1` [Compound 310], for which the pEC50 is more than 7.30.

For the molecule `O=C(O)c1ccc2nc(CN3CCC(Oc4ccnc(COc5ccc(C(F)(F)F)cc5F)n4)CC3)n(C[C@@H]3CCO3)c2n1` [Compound 371], the pEC50 was more than 7.30.

For the molecule `O=C(O)c1ccc2nc(CN3CCN(C(=O)c4cccc(Oc5ccc(Cl)cc5)c4)CC3)n(C[C@@H]3CCO3)c2c1` [Compound 7, 2-({4-[3-(4-chlorophenoxy)benzoyl]piperazin-1-yl}methyl)-1-{[(2S)-oxetan-2-yl]methyl}-1H-1,3-benzodiazole-6-carboxylic acid], the negative logarithm of the EC50 (pEC50) is less than 6.30.
